Measured values published in the supplement of paper PMC10878532, “Sperm Toolbox—A selection of small molecules to study human spermatozoa” (PLOS ONE, 2024).
Counter-ions that a name gives are not always drawn.

Legend:
HeLa [1] = assay: HeLa toxicity: nuclei-count effect normalised to DMSO (DMSO = 0); higher = more features changed / larger toxic effect; settings: incubation time: 24h incubation
human spermatozoa [2] = assay: progressively motile sperm, percent change vs DMSO (non-capacitating); higher = more of the measured sperm population than DMSO, for viability, fewer PI-positive (dead) cells than DMSO; extreme values may be limits of the assay
human spermatozoa [3] = assay: progressively motile sperm, percent change vs DMSO (capacitating); higher = more of the measured sperm population than DMSO, for viability, fewer PI-positive (dead) cells than DMSO; settings: incubation time: 30min incubation
human spermatozoa [4] = assay: viability fold change, 1 - (PI-positive fraction / DMSO median); higher = more of the measured sperm population than DMSO, for viability, fewer PI-positive (dead) cells than DMSO; settings: incubation time: 3h, non-capacitating
human spermatozoa [5] = assay: total motile sperm, percent change vs DMSO (non-capacitating); higher = more of the measured sperm population than DMSO, for viability, fewer PI-positive (dead) cells than DMSO
HepG2 = HepG2 toxicity (resazurin), effect normalised to DMSO (DMSO = 0); higher = more features changed / larger toxic effect; settings: incubation time: 70h incubation
human spermatozoa [6] = assay: change in acrosome-reacted (PNA+) sperm vs DMSO, no agonist (capacitating); higher = more of the measured sperm population than DMSO, for viability, fewer PI-positive (dead) cells than DMSO; settings: incubation time: 3h
human spermatozoa [7] = assay: acrosome-reacted (PNA+) sperm after agonist cocktail, percent change vs DMSO (capacitating); higher = more of the measured sperm population than DMSO, for viability, fewer PI-positive (dead) cells than DMSO; settings: incubation time: 3h, capacitating + agonist cocktail 1h
HeLa [8] = assay: Cell Painting percent induction (share of features beyond 2 z-scores vs DMSO); higher = more features changed / larger toxic effect; extreme values may be limits of the assay; settings: incubation time: 24h incubation
human spermatozoa [9] = assay: hyperactivated motile sperm, percent change vs DMSO (capacitating); higher = more of the measured sperm population than DMSO, for viability, fewer PI-positive (dead) cells than DMSO; settings: incubation time: 30min incubation
[10] = incubation time: 10min incubation, 9.99 µM
[11] = incubation time: 10min incubation, 29.9 µM
[12] = incubation time: 3h incubation, 9.99 µM
[13] = incubation time: 3h incubation, 29.9 µM
[14] = incubation time: 6h incubation, 9.99 µM
[15] = incubation time: 6h incubation, 29.9 µM
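For progressively motile sperm, percent change vs DMSO (non-capacitating) in this document: pooled live human sperm from at least 3 donors, tracked by automated microscopy in 0.5 s time-lapse movies, compounds at 10 and 30 µM, versus median of 16 DMSO wells per plate.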
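For total motile sperm, percent change vs DMSO (non-capacitating) in this document: sperm pooled from at least 3 donors, tracked in 0.5 s time-lapse movies by automated microscopy after 10 min, 3 h or 6 h with compound at 10 or 30 µM.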

Row | SMILES | HeLa toxicity: nuclei-count effect normalised (HeLa [1]; 9.99 µM) [%] | HeLa toxicity: nuclei-count effect normalised (HeLa [1]; 29.9 µM) [%] | progressively motile sperm (human spermatozoa [2]; [10]) [%] | progressively motile sperm (human spermatozoa [2]; [11]) [%] | progressively motile sperm (human spermatozoa [2]; [12]) [%] | progressively motile sperm (human spermatozoa [2]; [13]) [%] | progressively motile sperm (human spermatozoa [2]; [14]) [%] | progressively motile sperm (human spermatozoa [2]; [15]) [%] | progressively motile sperm (human spermatozoa [3]; 9.99 µM) [%] | progressively motile sperm (human spermatozoa [3]; 29.9 µM) [%] | viability fold change (human spermatozoa [4]; 9.99 µM) | viability fold change (human spermatozoa [4]; 29.9 µM) | total motile sperm (human spermatozoa [5]; [10]) [%] | total motile sperm (human spermatozoa [5]; [11]) [%] | total motile sperm (human spermatozoa [5]; [12]) [%] | total motile sperm (human spermatozoa [5]; [13]) [%] | total motile sperm (human spermatozoa [5]; [14]) [%] | total motile sperm (human spermatozoa [5]; [15]) [%] | HepG2 toxicity (HepG2; 10 µM) [%] | HepG2 toxicity (HepG2; 30 µM) [%] | change in acrosome-reacted (human spermatozoa [6]; 9.99 µM) [%] | change in acrosome-reacted (human spermatozoa [6]; 29.9 µM) [%] | acrosome-reacted (human spermatozoa [7]; 9.99 µM) [%] | acrosome-reacted (human spermatozoa [7]; 29.9 µM) [%] | Cell Painting percent induction (HeLa [8]; 9.99 µM) [%] | Cell Painting percent induction (HeLa [8]; 29.9 µM) [%] | hyperactivated motile sperm (human spermatozoa [9]; 9.99 µM) [%] | hyperactivated motile sperm (human spermatozoa [9]; 29.9 µM) [%]
1 | CNC(=O)c1ccccc1Nc1nc(Nc2ccc(N3CCOCC3)cc2OC)ncc1Cl [TAE226] | 45.5 | 83.4 | 30.1 | 34.5 | 9.37 | 3.96 | 25.7 | 23.8 | -5.22 | -5.06 | -0.257 | 0.581 | 0.613 | 1.31 | -18.9 | -22.2 | -16.2 | -14.9 | 92.5 | 99.8 | 1.37 | 1.97 | 10.7 | 31.6 | 1.84 | 21.1 | 137 | 34.1
2 | COCC(=O)O[C@]1(CCN(C)CCCc2nc3ccccc3[nH]2)CCc2cc(F)ccc2[C@@H]1C(C)C [Mibefradil] | 35.6 | 97.9 | 1.95 | 0.528 | 16.4 | 25.7 | 27.4 | 23.4 | 3.94 | 6.24 | -1.48 | -2.28 | -1.6 | 0.488 | -3.96 | -8.13 | -7.2 | -14.3 | 14 | 103 | 0.323 | 1.49 | 18.3 | 38.1 | 5.66 | 43.7 | -13.7 | -48.1
3 | CC(C)C(C(=O)OC(C#N)c1cccc(Oc2ccccc2)c1)c1ccc(Cl)cc1 (stereo not given) [Fenvalerate] | 8.15 | 4.61 | -11.9 | -13.7 | 3.76 | -3.88 | 11.3 | 5.45 | -16 | -21.3 | -0.675 | 0.413 | -12.2 | -13.5 | -9.13 | -13 | -6.57 | -13.4 | 6.05 | -6.97 | 1.05 | 0.945 | 16 | 11.8 | 0 | 0.036 | -11.7 | -10.3
4 | COc1cc2c(cc1OC)-c1c/c(=N\c3c(C)cc(C)cc3C)n(C)c(=O)n1CC2 [Trequinsin hydrochloride] | -1.54 | 27.5 | 33.3 | 28.3 | 76.1 | 48.1 | 76.6 | 44 | 8.14 | 16.2 | -1.81 | -1.99 | -3.16 | -4.39 | -11.3 | -17.8 | -12.7 | -22.8 | 11.1 | 40.3 | 1.55 | 1.58 | 102 | 120 | 0.036 | 0.36 | 192 | 73.7
5 | NC(=O)c1cc(-c2ccc(S(=O)(=O)[C@H]3CC[C@H](Nc4ccc(C(F)(F)F)cn4)CC3)cc2)ccn1 [CCR6 inhibitor 1] | 38.5 | 82.3 | 20.1 | 23 | 25.5 | 9.27 | 37.7 | -18.5 | 4.84 | -2.5 | -1.3 | -0.257 | -1.18 | -0.388 | -10.1 | -17.5 | -12.7 | -30 | 93.6 | 97.6 | 0.47 | 1.33 | 47.9 | 31 | 0.144 | 1.51 | 0.384 | -27
6 | CN(c1ccccc1CNc1nc(Nc2ccc3c(c2)CC(=O)N3)ncc1C(F)(F)F)S(C)(=O)=O | 81.5 | 90.7 | 20.2 | 16.8 | 29.9 | 21.7 | 40.3 | 24.4 | -2.37 | -3.01 | -1.76 | -1.35 | -4.4 | -6.03 | -7.55 | -13.4 | -11 | -16.3 | 95.1 | 90.2 | 0.291 | 0.085 | -10.6 | -8.83 | 8.65 | 17.7 | 41.5 | -30.2
7 | COC(=O)[C@]1(C)CC[C@]2(C)CC[C@]3(C)C4=CC=C5C(=CC(=O)C(O)=C5C)[C@]4(C)CC[C@@]3(C)[C@@H]2C1 [Pristimerin] | 98.7 | 98.7 | -86.8 | -99.9 | -100 | -100 | -100 | -99.9 | -74.5 | -96.6 | -0.933 | -1.2 | -50.2 | -83.1 | -90.8 | -88.7 | -92.1 | -85.4 | 103 | 103 | 3.63 | 6.18 | -52.1 | -57.5 | 46.9 | 38.9 | -72.5 | -73.6
8 | CC(C)Cn1c(=O)n(C)c(=O)c2[nH]cnc21 [IBMX] | 3.07 | -2.27 | 18.9 | 35.7 | 40.5 | 53.9 | 53.1 | 61.2 | 12.9 | 19.2 | -0.424 | -0.627 | -1.18 | 1.45 | -5.33 | -3.42 | -1.15 | -4.45 | 7.96 | -0.365 | 0.651 | 1.04 | 36.8 | 69.3 | 0 | 0.036 | 67.7 | 147
9 | CCc1c(C)nc(SCC(=O)Nc2nc(-c3ccc(OC)cc3)cs2)[nH]c1=O [T16Ainh-A01] | 6.48 | -5.14 | 5.37 | 6.45 | 1.94 | 14.7 | 4.81 | 19.4 | 2.99 | 14.4 | -0.653 | -0.578 | 2.04 | 2.24 | -4.04 | 0.707 | -7.94 | -0.932 | -6.4 | -1.86 | 0.555 | 1.02 | 8.11 | 6.61 | 0 | 0.108 | -2.36 | -0.263
10 | O=S(=O)(NCCNC/C=C/c1ccc(Br)cc1)c1cccc2cnccc12 [H 89 dihydrochloride] | 7.55 | 17.5 | 12.9 | 3.24 | 21.9 | 3.91 | 27.7 | 10.5 | 9.41 | 1.95 | -0.8 | -1.21 | 5.7 | 1.67 | 2.42 | 2.31 | 2.24 | 1.63 | -3.98 | 92.3 | 0.62 | 0.493 | 4.9 | 11.9 | 0.648 | 1.84 | 4.83 | -35.2
